Several values for one entry are separate records, joined by “and”; a condition that tells them apart may be missing. Identical values can stand only once.
Target: T1, human 5-HT3A receptors (Homo sapiens, UniProt P46098)
T1 construct: expressed in transfected cells; host or cells: Xenopus laevis oocytes (cRNA from pGEMHE)
T1 sequence (P46098 24-478): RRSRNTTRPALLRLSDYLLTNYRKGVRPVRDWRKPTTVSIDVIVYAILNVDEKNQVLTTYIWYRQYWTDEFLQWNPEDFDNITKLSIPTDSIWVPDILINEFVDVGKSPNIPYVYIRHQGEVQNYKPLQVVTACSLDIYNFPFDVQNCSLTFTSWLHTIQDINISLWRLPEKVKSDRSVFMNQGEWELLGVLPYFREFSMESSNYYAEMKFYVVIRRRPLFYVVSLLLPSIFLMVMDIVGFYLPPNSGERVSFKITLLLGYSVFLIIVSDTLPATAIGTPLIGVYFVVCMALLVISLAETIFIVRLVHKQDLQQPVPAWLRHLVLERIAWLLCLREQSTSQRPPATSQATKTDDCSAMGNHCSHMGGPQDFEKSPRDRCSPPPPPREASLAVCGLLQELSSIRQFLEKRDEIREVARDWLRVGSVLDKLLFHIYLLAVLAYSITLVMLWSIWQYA
Assay: Two-electrode voltage clamp of 5-HT-induced currents in Xenopus oocytes, incl. co-application
Type: cell-based
Conditions: for use-dependence of inhibition: 3 μM 5-HT applied at 1 min intervals in continued presence of antagonist; for ratio of current amplitudes at +40 mV relative to −40 mV (voltage-dependence): compared with absence of antagonist, Fig. 2E; for Hill slope: concentration-inhibition curve, 1.7 μM 5-HT; for potency at 5-HT3A relative to GABA and glycine receptors: less potent than at GABA and glycine receptors, ref Huang et al., 2004, Hawthorne et al., 2006
Experimental: Stage V and VI oocytes were injected with 50 nl of ∼300 ng μl^−1 cRNA, and currents were recorded 1–4 days post-injection. A ratio of 1:3 (A:B) was used for the expression of heteromeric 5-HT3 receptors.
Xenopus laevis oocyte positive females were purchased from NASCO (Fort Atkinson, Wisconsin, USA) and maintained according to standard methods.
Currents were filtered at a frequency of 1 kHz. Micro-electrodes were fabricated from borosilicate glass (GC120TF-10, Harvard Apparatus, Edenbridge, Kent, UK) using a two stage horizontal pull (P-87, Sutter Instrument Company, California, USA) and filled with 3 M KCl. […] Oocytes were perfused with saline at a rate of 15 ml min^−1. Drug application was via a simple gravity fed system calibrated to run at the same rate. Extracellular saline contained (mM), 96 NaCl, 2 KCl, 1 MgCl2 and 5 mM HEPES; adjusted to pH 7.4 with NaOH.
Analysis and curve fitting was performed using Prism V3.02 (GraphPad Software, San Diego, California, USA, www.graphpad.com). Concentration-response data for each oocyte was normalised to the maximum current for that oocyte. For inhibition curves, antagonists were routinely co-applied in the presence of agonist. For PXN, oocytes were also pre-treated with the compound for 20 s. A 2 min wash was used between drug applications. The mean and S.E.M. for a series of oocytes was plotted against agonist or antagonist concentration and iteratively fitted (GraphPad Prism v3.02) to the following Hill equation:(1) IA=Imin+Imax−Imin/1+10^nH(logA50−logA) where A is the concentration of ligand present; IA is the current in the presence of ligand concentration A; Imin is the current when A = 0; Imax is the current when A = ∞ , A50 is the concentration of A which evokes a current equal to (Imax + Imin)/2; and nH is the Hill coefficient. Results are presented as mean ± S.E.M.. Statistical analysis was performed using ANOVA in conjunction with a Dunnett’s post-hoc test.
97) • Scenario 1: Where compounds share a binding site it was assumed that the extent of binding would be determined by a competitive interaction between the compounds such that the proportion of binding sites occupied (Pocc) in the presence of two competing compounds is given by the following expression: (2) Pocc=AKA+BKB/1+AKA+BKB where A and B are the concentrations of two ligands and KA and KB are their affinity constants respectively.
In each individual experiment, for each combination of inhibitors, data values were obtained for IA, IB and IAB. From IA and IB predicted values of IAB1 and IAB2 were also derived. A two-way ANOVA was performed on values of IAB, IAB1 and IAB2 in which the distinction between IAB, IAB1 and IAB2 was treated as a fixed factor and the variation in levels of inhibition between experiments was treated as a random factor. Where the ANOVA indicated a significant difference (P < 0.05) between IAB, IAB1 and IAB2 a post-hoc analysis was carried out using the Waller–Duncan method to identify homogenous subsets with a significance level of 0.05 and a Type I /Type II error ratio if 100.
Our models were based on the following assumptions: 1. that the channel blocking compounds only effect the response that is seen when the channel is open. […] In the case of condition 5 it is possible that the binding of one compound may prevent access of another to its own site. However, in practice this will not influence the analysis since the functional consequence of the binding of both compounds compared to one will be the same, namely complete channel blockade.

[1] = GB 300 μM, use-dependency experiment, Fig. 3A

With `CC(C)(C)[C@]1(O)CC2OC(=O)CC23C(=O)OC2OC(=O)[C@H](O)C231` (stereo partly drawn) [BB, bilobalide] the IC50 was 470 µM, the use-dependence of inhibition (GB 300 μM) was “remained stable” and the current on washout (6 mM) was “transient rebound current was observed”. For the same compound, the “ratio of current amplitudes at +40 mV relative to −40 mV (voltage-dependence)” value was “unaltered”, the Hill slope was 1.48 ± 0.16 and the “potency at 5-HT3A relative to GABA and glycine receptors” value was about 100 fold.

For `C=C(C)[C@@H]1[C@H]2OC(=O)[C@@H]1[C@]1(O)C[C@H]3O[C@]34C(=O)O[C@H]2[C@]14C` [PXN, picrotoxinin], the IC50 was 10.7 µM, the use-dependence of inhibition (GB 300 μM) was “remained stable” and the “Level of inhibition (1 − (I/Imax)) PXN” value (PXN 5 μM applied alone) was 0.35 ± 0.03. For the same compound, the “effect on 5-HT concentration-response curves” value (PXN between 1–50 × IC50) was “rightwards shifts and a reduction in the maximal current”, the “ratio of current amplitudes at +40 mV relative to −40 mV (voltage-dependence)” value was “unaltered” and the Hill slope was 0.68 ± 0.12. For the same compound, the inhibition at 5 µM (read-out: Level of inhibition (1 − (I/Imax)) PXN, PXN 5 μM applied alone) was 48 ± 4%.

With ginkgolide B [GB] the use-dependence of inhibition (GB 300 μM) was “use-dependent”, the “Level of inhibition (1 − (I/Imax)) GB” value (GB 11 μM applied alone) was 0.25 ± 0.01 and 0.26 ± 0.05 and the “percentage inhibition measured at peak” value [1] was 31 ± 3.1%. The “percentage inhibition measured during the first application” value [1] was 38 ± 0.8%, the “first 5-HT response as % of the second 5-HT response (recovery)” value (after 0.3 mM GB) was 91 ± 2% and the “ratio of current amplitudes at +40 mV relative to −40 mV (voltage-dependence)” value was “unaltered”. For the same compound, the Hill slope was 1.10 ± 0.13 and the “potency at 5-HT3A relative to GABA and glycine receptors” value was about 100 fold.
